# Results taken from patent publication US8377883B2, “Peptide for anti-angiogenesis and use thereof” (Beijing Institute for Cancer Research, priority 2006, dated 2013).
# What was measured:
# [1] = tested on: mice liver cancer H22 cells; test: Tumor suppression by FpAT and derivative peptides in liver cancer H22 tumor-bearing mouse model (Example 14); type: in vivo, mice of Kunming strain; settings: peptides 50 μg/100 μl PBS/injection, angulus oculi medialis vein daily, 7 times; CTX 80 mg/KG; tumors weighed
# Method: Ninety 5-week old mice of Kunming strain purchased from Animal Center Of Chinese Academy Of Medical Sciences were inoculated subcutaneously in forelimb with mice liver cancer H22 cells (National Institute for the Control of Pharmaceutical and Biological Products) (5×10^6/100 μl/mouse). On the next day after inoculation, each kind of inoculated cells were divided randomly into […] with 10 mice per group. FpAT (50 μg/100 μl PBS/injection) and 7 kinds of derivative peptides thereof (see Table 5 below for detailed sequence):FpAT-N3d, FpAT-N6d, FpAT-N9d, FpAT-C3d, FpAT-C6d, FpAT-C9d, FpAT-N5d-C4d, and vehicle control (PBS:100 μl/injection) were injected in angulus oculi medialis vein, with CTX (cyclophosphamide) (80 mg/KG) as positive control daily, 7 times in total. The mice were sacrificed by dislocating the neck on the next day after administration was stopped, and the tumors were taken and weighed for a statistical analysis.
# [2] = tested on: human colon cancer HT-29 cells; test: Tumor suppression in human colon cancer HT-29 tumor-bearing nude mice model; type: in vivo, Balb/c nude mice; settings: 50 μg/100 μl PBS/injection, angulus oculi medialis vein once every other day, 10 times; vs vehicle, P<0.05
# Method: In order to confirm the biological effects of FpAT on the growth of human deriving tumors in nude mice in vivo, a tumor suppression experiment was carried out in this example using human gastric carcinoma BGC-823 cells tumor-bearing nude mice model, human lung cancer PG cells tumor-bearing nude mice model and human colon cancer HT-29 cells tumor-bearing nude mice model.
# Twenty 5-week old Balb/c nude mice purchased from Animal Center Of Chinese Academy Of Medical Sciences were inoculated subcutaneously in forelimb with human gastric carcinoma BGC-823 cells (National Institute for the Control of Pharmaceutical and Biological Products) (5×10^6/100 μl/mouse), human lung cancer PG cells (National Institute for the Control of Pharmaceutical and Biological Products) (5×10^6/100 μl/mouse) or human colon cancer HT-29 cells (ATCC® Number: HTB-38™) (5×10^6/100 μl/mouse). On the next day after inoculation, each kind of inoculated cells were divided into 2 groups randomly with 5 mice per group. […] Observation was continued for another 20 days after administration was stopped, and during this period the long and short diameters of the tumors were measured with a vernier caliper once every three days, and the volumes of the tumor mass were calculated according to formula ½×long diameter×short diameter^2. […]
# [3] = tested on: D2F2 cells (Balb/c mouse-derived breast carcinoma cell); test: MTT proliferation of D2F2 cells; type: cell-based; settings: 25 μg/ml PBS, ninety six hours
# Method: To investigate direct effects of FpAT on tumor cells in vitro, the influence of FpAT on the proliferation of D2F2 cell (Balb/c mouse-derived breast carcinoma cell) was examined using MTT in this example.
# D2F2 cells (Mahoney K H, Miller B E, Heppner G H. FACS quantitation of leucine aminopeptidase and acid phosphatase on tumor-associated macrophages from metastatic and nonmetastatic mouse mammary tumors. J Leukoc Biol. 1985 November; 38(5): 573-85.) were cultured conventionally. The cultured D2F2 cells were digested with 0.04% trypsin-EDTA, and inoculated into 96-well plate at 3×10^3 cells/well; after 24 hours of culture, PBS and FpAT (25 μg/ml PBS) were added separately, with 4 parallel wells per group. Ninety six hours later, 20 μl MTT solution of mass concentration of 5 mg/ml was added to each well. After the culture was performed continuously for 4 hours, the original culture medium was discarded and 200 μl DMSO was added to each well, and then it was shaken for 15 minutes. After mixed well, OD value (measured at a wavelength of 570 nm) of each well was measured in a microplate reader, and the cell suppression rates were calculated according to the following formula: cell suppression rate=(mean OD value of blank control group−mean OD value of treated group)/mean OD value of blank control group×100%.
# [4] = tested on: chick chorioallantoic membrane vessel; test: Proliferation of chick chorioallantoic membrane vessel; settings: 10 μl of 1 μg/μL on glass fiber filter membrane, 24 hours
# Method: In this example an experiment of proliferation of chick chorioallantoic membrane vessel was carried out to test suppressing effects of FpAT on angiogenesis.
# The test was performed according to the method described in the reference “Fu Shengfa, Lu yinglin, Zhang Chaoshan et al., A chick chorioallantoic membrane technique to test function of vascular growth factors, Bulletin of the Academy of Military Medical Sciences 1993, 17:294-97”. Fresh fertilized hen eggs were immersed into 0.1% benzalkonium bromide solution at 38° C. for 2 minutes, and then incubated in an incubator at 37.5° C. in a humidity of 60-70% for 3 days. Then the eggs with shell removed were transferred to plate and cultured. The samples were separated into groups and administered when the allantoic membrane grew to about 2 cm^2, 5 chicken embryos per group. 10 μl of FpAT (1 μg/μL), PBS (negative control) was dropped on a glass fiber filter membrane of Φ4 mm, which was placed at distal end of chorioallantoic membrane, and cultured for 24 hours. The results were observed and recorded by taking photos. The experiment was repeated twice.
# [5] = tested on: human umbilical vein endothelial cells (HUVECs); test: Three-dimensional tubular structure formation of HUVECs; type: cell-based; settings: 10, 25, 100 μg/ml PBS; 48, 72, 96 hours
# Method: Human umbilical cord samples (obtained from Beijing Obstetrics & Gynecology Hospital) was digested with 0.1% collagenase I (available from GIBCO BRL company), followed by a centrifugation (1000 rpm, 10 minutes) to collect human umbilical vein endothelial cells (HUVECs). After suspended in 20% FCS/RPMI1640, the cells were transferred into plastic bottles for culture in CO2 incubator (37° C., 5% CO2). Twelve hours later, unattached cells were discarded by changing medium, and then the remaining cells were cultured conventionally with the medium changed every 3 days. The cultured HUVECs were digested with 0.04% trypsin-EDTA, and inoculated into 24-well plate at 2×10^4 cells/well; and the vehicle (PBS) and FpAT (10 μg/ml PBS, 25 μg/ml PBS, 100 μg/ml PBS) were added separately, with 3 parallel wells per group.
substance,measurement,setting,value
"H2N-Asp-Ser-Gly-Glu-Gly-Asp-Phe-Leu-Ala-Glu-Gly-Gly-Gly-Val-Arg-COOH (H-DSGEGDFLAEGGGVR-OH; listed as Homo sapiens) [FpAT, fibrinopeptide A truncated, carboxyl terminal 15 amino acids of fibrinopeptide A]",tumor suppressing rate,[1],65.4%
same,growth of human colon cancer HT-29 cells in nude mice (tumor mass),[2],could suppress the growths
same,suppression of D2F2 cell proliferation,[3],can not suppress D2F2 cells in vitro
same,blood vessel distribution and original blood vessel,[4],inducing disorder of blood vessel distribution and atrophy of original blood vessel
same,blood vessel formation,[4],suppressing remarkably blood vessel formation
same,ability to form a three-dimensional and tubular structure of HUVECs,[5],can suppress specifically
